Reference: patent US9302999B2, “Substituted triazoles as herbicides” (E. I. DU PONT DE NEMOURS AND COMPANY, priority 2012, dated 2016)

Assays:
Format in all cases: in vivo
[1] = system: barnyardgrass (Echinochloa crus-galli); experiment: Test B flooded paddy: barnyardgrass; conditions: Flood, applied to paddy water at 2-leaf stage, visually evaluated after 13 to 15 days
Summary of the method: (§1)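 Two-leaf-stage plants, pots flooded (3 cm above soil) and treated through the water, which stayed at that depth. After 13–15 days in greenhouse conditions, visual assessment versus controls: 0 is no effect, 100 complete control, dash means no result.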

[2] = system: sedge, umbrella (small-flower umbrella sedge Cyperus difformis); experiment: Test B flooded paddy: sedge, umbrella; conditions: Flood, applied to paddy water at 2-leaf stage, visually evaluated after 13 to 15 days
Summary of the method: as §1

[3] = system: ducksalad (Heteranthera limosa); experiment: Test B flooded paddy: ducksalad; conditions: Flood, applied to paddy water at 2-leaf stage, visually evaluated after 13 to 15 days
Summary of the method: as §1

[4] = system: bermudagrass (Cynodon dactylon); experiment: Test C pre-/postemergence: bermudagrass
Summary of the method: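 Visual injury scored 0–100 (100 = complete control) against untreated controls after 13–15 greenhouse days. Surfactant-containing solvent formulations applied either to soil after sowing (loam/sand) or over 1- to 4-leaf plants, 2–18 cm tall.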

[5] = system: foxtail, green (green foxtail, Setaria viridis); experiment: Test D pre-/postemergence: foxtail, green
Summary of the method: (§2)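 Applied as a non-phytotoxic solvent formulation with surfactant, compounds were tested preemergence in silt loam and postemergence on seedlings 2 to 18 cm high in peat-vermiculite medium. Evaluation was visual, 0 meaning no effect and 100 complete control, at 14 to 21 days.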

[6] = system: lambsquarters (Chenopodium album); experiment: Test D pre-/postemergence: lambsquarters
Summary of the method: as §2

[7] = system: ducksalad (Heteranthera limosa); experiment: Test C flooded paddy test: ducksalad; conditions: Heteranthera limosa, scale 0 to 100 (0 no effect, 100 complete control), read-out: Plant response rating, Ducksalad
Summary of the method: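 Greenhouse plants treated at the 2-leaf stage by dosing the flood water (3 cm depth, maintained) were compared with controls after 13 to 15 days and rated 0 to 100, where 100 means complete control; a dash marks no test result.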

[8] = system: wheat, spring (spring wheat, Triticum aestivum); experiment: Test D pre-/postemergence: wheat, spring
Excerpt: Seeds of plant species selected from bluegrass (annual bluegrass, Poa annua), blackgrass (Alopecurus myosuroides), canarygrass (Phalaris minor), chickweed (common chickweed, Stellaria media), galium (catchweed bedstraw, Galium aparine), bromegrass, downy (downy bromegrass, Bromus tectorum), field poppy (Papaver rhoeas), field violet (Viola arvensis), foxtail, green (green foxtail, Setaria viridis), deadnettle (henbit deadnettle, Lamium amplexicaule), ryegrass, Italian (Italian ryegrass, Lolium multiflorum), kochia (Kochia scoparia), lambsquarters (Chenopodium album), oilseed rape (Brassica napus), pigweed (Amaranthus retroflexus), Russian thistle (Salsola iberica), chamomile (scentless chamomile, Matricaria inodora), speedwell (bird's-eye speedwell, Veronica persica), barley, spring (spring barley, Hordeum vulgare), wheat, spring (spring wheat, Triticum aestivum), buckwheat, wild (wild buckwheat, Polygonum convolvulus), mustard, wild (wild mustard, Sinapis arvensis), oat, wild (wild oat, Avena fatua), radish, wild (wild radish, Raphanus raphanistrum), windgrass (Apera spica-venti), barley, winter (winter barley, Hordeum vulgare), and wheat, winter (winter wheat, Triticum aestivum) were planted into a silt loam soil and treated preemergence with test chemicals formulated in a non-phytotoxic solvent mixture which included a surfactant. At the same time, these same crop and weed species were planted in pots containing the planting medium comprising spaghnum peat moss, vermiculite, wetting agent and starter nutrients and treated with postemergence applications of the test chemicals formulated in the same manner. Plants ranged in height from 2 to 18 cm (1- to 4-leaf stage).
Treated plants and controls were maintained in a controlled growth environment for 14 to 21 days after which time all species were compared to controls and visually evaluated. Plant response ratings, summarized in Table D, are based on a scale of 0 to 100 where 0 is no effect and 100 is complete control. A dash (-) response means no test result.

[9] = Postemergence, 31 g ai/ha, scale 0 to 100 (0 no effect, 100 complete control)
[10] = Postemergence, 62 g ai/ha, scale 0 to 100 (0 no effect, 100 complete control)
[11] = Postemergence, 125 g ai/ha, scale 0 to 100, 0 no effect, 100 complete control
[12] = Postemergence, 250 g ai/ha, scale 0 to 100
[13] = Preemergence, 31 g ai/ha, scale of 0 to 100, 0 is no effect, 100 is complete control
[14] = Preemergence, 125 g ai/ha, scale 0 to 100, 0 no effect, 100 complete control
[15] = Preemergence, 250 g ai/ha, scale 0 to 100, 0 no effect, 100 complete control
[16] = Postemergence, 250 g ai/ha, scale 0 to 100 (0 no effect, 100 complete control)
[17] = Postemergence, 16 g ai/ha, scale 0 to 100
[18] = Preemergence, 16 g ai/ha, scale 0 to 100 (0 no effect, 100 complete control)
[19] = Preemergence, 31 g ai/ha, scale 0 to 100 (0 no effect, 100 complete control)
[20] = Preemergence, 62 g ai/ha, scale 0 to 100
[21] = Preemergence, 125 g ai/ha, scale 0 to 100
[22] = Preemergence, 250 g ai/ha, scale 0 to 100

For CCCc1nn(-c2ccc(F)cc2)nc1Cc1ccnc(C(F)(F)F)c1 [Compound 153], the “Plant response rating, Barnyardgrass (0 to 100 scale, 0 is no effect, 100 is complete control)” value ([1]; 250 g ai/ha) was 80, the “Plant response rating, Sedge, Umbrella (0 to 100 scale, 0 is no effect, 100 is complete control)” value ([2]; 250 g ai/ha) was 90 and the “Plant response rating, Ducksalad (0 to 100 scale, 0 is no effect, 100 is complete control)” value ([3]; 250 g ai/ha) was 90.
In the case of CCOc1nn(-c2ccc(Br)cc2)nc1Cc1ccnc(C(F)(F)F)c1 [Compound 189], the “Plant response rating, Barnyardgrass (0 to 100 scale, 0 is no effect, 100 is complete control)” value ([1]; 125 g ai/ha) is reported as 0, the “Plant response rating, Sedge, Umbrella (0 to 100 scale, 0 is no effect, 100 is complete control)” value ([2]; 125 g ai/ha) is reported as 0 and the “Plant response rating, Ducksalad (0 to 100 scale, 0 is no effect, 100 is complete control)” value ([3]; 125 g ai/ha) is reported as 20.
CCc1nn(-c2ccc(F)cc2)nc1Oc1ccnc(C(F)(F)F)c1 [Compound 166] was tested, and the “Plant response rating, Barnyardgrass (0 to 100 scale, 0 is no effect, 100 is complete control)” value ([1]; 125 g ai/ha) was 70, the “Plant response rating, Sedge, Umbrella (0 to 100 scale, 0 is no effect, 100 is complete control)” value ([2]; 125 g ai/ha) was 70 and the “Plant response rating, Ducksalad (0 to 100 scale, 0 is no effect, 100 is complete control)” value ([3]; 125 g ai/ha) was 70.
In the case of Cc1nn(-c2ccc(F)cc2)nc1Cc1ccnc(C(F)(F)F)c1 [Compound 16, 4-[[2-(4-fluorophenyl)-5-methyl-2H-1,2,3-triazol-4-yl]methyl]-2-(trifluoromethyl)pyridine], the “Plant response rating, Bermudagrass” value [4, 9] is reported as 5, the “Plant response rating, Bermudagrass” value [4, 10] is reported as 5 and the “Plant response rating, Bermudagrass” value [4, 11] is reported as 15. For the same compound, the “Plant response rating, Bermudagrass” value [4, 12] was 65, the “Plant response rating, Bermudagrass” value [4, 13] was 5 and the “Plant response rating, Bermudagrass” value ([4]; Preemergence, 62 g ai/ha, scale 0 to 100, 0 no effect, 100 complete control) was 25. The “Plant response rating, Bermudagrass” value [4, 14] was 75, the “Plant response rating, Bermudagrass” value [4, 15] was 75 and the “Plant response rating: Foxtail, Green” value [5, 9] was 30. The “Plant response rating: Foxtail, Green” value [5, 10] was 80, the “Plant response rating: Foxtail, Green” value [5, 11] was 90 and the “Plant response rating: Foxtail, Green” value [5, 16] was 95. The “Plant response rating, Foxtail, Green” value [5, 17] was 30, the “Plant response rating, Foxtail, Green” value [5, 18] was 25 and the “Plant response rating, Foxtail, Green” value [5, 19] was 100. For the same compound, the “Plant response rating, Foxtail, Green” value [5, 20] was 100, the “Plant response rating, Foxtail, Green” value [5, 21] was 100 and the “Plant response rating, Foxtail, Green” value [5, 22] was 100. For the same compound, the “Plant response rating: Lambsquarters” value [6, 9] was 80, the “Plant response rating: Lambsquarters” value [6, 10] was 100 and the “Plant response rating: Lambsquarters” value [6, 11] was 100. The “Plant response rating: Lambsquarters” value [6, 16] was 100, the “Plant response rating, Lambsquarters” value [6, 17] was 75 and the “Plant response rating, Lambsquarters” value [6, 18] was 30. For the same compound, the “Plant response rating, Lambsquarters” value [6, 19] was 50, the “Plant response rating, Lambsquarters” value [6, 20] was 80 and the “Plant response rating, Lambsquarters” value [6, 21] was 95. The “Plant response rating, Lambsquarters” value [6, 22] was 100, the pest or weed control at 62 g/ha ([7]; Flood (flooded paddy test), 62 g ai/ha, visual rating after 13 to 15 days) was 85% and the pest or weed control at 125 g/ha ([7]; Flood (flooded paddy test), 125 g ai/ha, visual rating after 13 to 15 days) was 95%. For the same compound, the pest or weed control at 250 g/ha ([7]; Flood (flooded paddy test), 250 g ai/ha, visual rating after 13 to 15 days) was 100%, the pest or weed control at 31 g/ha ([7]; Flood, 31 g ai/ha) was 70% and the “Plant response rating: Wheat, Spring” value [8, 9] was 10. For the same compound, the “Plant response rating: Wheat, Spring” value [8, 10] was 10, the “Plant response rating: Wheat, Spring” value [8, 11] was 15 and the “Plant response rating: Wheat, Spring” value [8, 16] was 20. For the same compound, the “Plant response rating, Wheat, Spring” value [8, 17] was 5, the “Plant response rating, Wheat, Spring” value [8, 18] was 0 and the “Plant response rating, Wheat, Spring” value [8, 19] was 0. For the same compound, the “Plant response rating, Wheat, Spring” value [8, 20] was 0, the “Plant response rating, Wheat, Spring” value [8, 21] was 5 and the “Plant response rating, Wheat, Spring” value [8, 22] was 10.
In the case of Fc1ccc(-n2nc(Cc3ccnc(C(F)(F)F)c3)c(OCC(F)(F)F)n2)cc1 [Compound 142], the “Plant response rating, Barnyardgrass (0 to 100 scale, 0 is no effect, 100 is complete control)” value ([1]; 250 g ai/ha) is reported as 70, the “Plant response rating, Bermudagrass” value [4, 9] is reported as 15 and the “Plant response rating, Bermudagrass” value [4, 10] is reported as 70. For the same compound, the “Plant response rating, Bermudagrass” value [4, 11] was 75, the “Plant response rating, Bermudagrass” value [4, 12] was 85 and the “Plant response rating, Bermudagrass” value [4, 13] was 98. For the same compound, the “Plant response rating, Bermudagrass” value ([4]; Preemergence, 62 g ai/ha, scale of 0 to 100, 0 is no effect, 100 is complete control) was 98, the “Plant response rating, Bermudagrass” value [4, 14] was 98 and the “Plant response rating, Bermudagrass” value [4, 15] was 98. For the same compound, the “Plant response rating, Sedge, Umbrella (0 to 100 scale, 0 is no effect, 100 is complete control)” value ([2]; 250 g ai/ha) was 90 and the “Plant response rating, Ducksalad (0 to 100 scale, 0 is no effect, 100 is complete control)” value ([3]; 250 g ai/ha) was 90.
